Assay results: article PMC7398594 (Neurotoxicology, 2020)

Columns and labels:
Format in all cases: cell-based, mouse
[1] = tested on: caspase-3/7 activity in HEI-OC1 cells; test: Caspase-3/7 luminescence assay; conditions: treated at compound IC50 value
HEI-OC1 cells [2] = test: MTT cellular viability assay; conditions: HEI-OC1 cell culture, ± standard deviation
HEI-OC1 cells [3] = test: Mitochondrial membrane potential assay; conditions: treated at compound IC50 value
HEI-OC1 cells [4] = test: Reactive oxygen species assay; conditions: 24 hours, treated at compound IC50 value

Row | Structure (SMILES) | caspase-3/7 activity, % of negative control ([1]; 24 hours) [%] | caspase-3/7 activity, % of negative control ([1]; 48 hours) [%] | IC50 (HEI-OC1 cells [2]; 24 Hr treatment) [nM] | IC50 (HEI-OC1 cells [2]; 48 Hr treatment) [nM] | mitochondrial membrane polarization (FL1 to FL3 ratio), % of negative control (HEI-OC1 cells [3]; 24 hours) [%] | mitochondrial membrane polarization (FL1 to FL3 ratio), % of negative control (HEI-OC1 cells [3]; 48 hours) [%] | ROS yield, % of negative control (HEI-OC1 cells [4]) [%]
1 | [NH3+][Pt-2]([NH3+])([Cl])[n+]1ccccc1 (stereo not drawn) [pyriplatin, cis-diammine (pyridine) chloroplatinum(II)] | 82 | 101 | 11100 ± 280 | 2520 ± 110 | 101 | 90 | 618
2 | N.N.[Cl][Pt][Cl] [cisplatin] | 86 | 352 | 1660 ± 330 | 4520 ± 170 | 109 | 110 | 751
3 | [NH3+][Pt-2]([NH3+])([Cl])[n+]1cc2ccccc2c2ccccc21 (stereo not drawn) [phenanthriplatin, cis-diammine (phenanthridine) chloroplatinum(II)] | 83 | 89 | 1640 ± 190 | 2310 ± 290 | 98 | 88 | 741
